Measurements published in ChEMBL document CHEMBL1132769, “Diphenyl sulfoxides as selective antagonists of the muscarinic M2 receptor” (Bioorg Med Chem Lett, 2000).
Values joined by “and” are separate entries in the source; they are usually repeats but may differ in a detail not shown here. Equal values may be shown once.

Tests used:
[1] = target: T1, Muscarinic acetylcholine receptor M2 (Homo sapiens, UniProt P08172); assay: Binding affinity towards the cloned human Muscarinic acetylcholine receptor M2
T1 sequence (P08172 whole entry): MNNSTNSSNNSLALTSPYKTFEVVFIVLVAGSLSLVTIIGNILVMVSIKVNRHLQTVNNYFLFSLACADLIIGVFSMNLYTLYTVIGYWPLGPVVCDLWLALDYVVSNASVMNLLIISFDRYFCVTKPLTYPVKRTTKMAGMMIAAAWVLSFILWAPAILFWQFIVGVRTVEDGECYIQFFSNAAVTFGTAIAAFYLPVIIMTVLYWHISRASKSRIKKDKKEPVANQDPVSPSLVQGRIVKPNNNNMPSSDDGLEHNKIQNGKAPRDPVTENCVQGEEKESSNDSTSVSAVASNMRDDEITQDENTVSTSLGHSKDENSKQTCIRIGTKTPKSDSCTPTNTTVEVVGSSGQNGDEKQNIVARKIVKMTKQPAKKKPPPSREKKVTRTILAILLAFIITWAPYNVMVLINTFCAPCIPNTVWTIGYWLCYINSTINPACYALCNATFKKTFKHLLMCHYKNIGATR

[2] = target: Muscarinic acetylcholine receptors; M1 & M2 (Homo sapiens) (UniProt P11229+P08172); assay: Ratio of binding affinity to M1 receptor compared to that of M2 receptor; assay type: protein assay
[3] = target: T2, Muscarinic acetylcholine receptor M1 (Homo sapiens, UniProt P11229); assay: Binding affinity towards the cloned human Muscarinic acetylcholine receptor M1
T2 sequence (P11229 whole entry): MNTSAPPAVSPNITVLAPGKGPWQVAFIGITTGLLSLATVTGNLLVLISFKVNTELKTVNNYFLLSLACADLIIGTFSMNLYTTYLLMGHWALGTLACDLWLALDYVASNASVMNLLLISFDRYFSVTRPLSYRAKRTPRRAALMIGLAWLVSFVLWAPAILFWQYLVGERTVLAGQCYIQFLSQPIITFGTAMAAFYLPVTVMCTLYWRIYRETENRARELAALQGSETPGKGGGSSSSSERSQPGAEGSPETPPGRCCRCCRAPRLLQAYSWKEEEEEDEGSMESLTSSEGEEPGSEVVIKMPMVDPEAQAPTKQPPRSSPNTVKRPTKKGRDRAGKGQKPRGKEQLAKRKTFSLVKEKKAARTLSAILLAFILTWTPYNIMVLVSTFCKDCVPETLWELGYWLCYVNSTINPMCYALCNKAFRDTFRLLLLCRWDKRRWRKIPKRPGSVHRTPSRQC

SMILES | Ki [1] | Ratio [2] | Ki [3]
CC(c1ccc(S(=O)(=O)c2ccccc2)cc1)N1CCNCC1 (stereo unspecified) | 37 nM | 1.6 | 57 nM
Cc1ccc(S(=O)(=O)c2ccc(C(C)N3CCN(C4CCCCC4)CC3)cc2)cc1 (stereo unspecified) | 0.8 nM | 14 | 11 nM
CC(c1ccc(S(=O)(=O)c2ccccc2)cc1)N1CCN(CCO)CC1 (stereo unspecified) | 26 nM | 3 | 77 nM
COc1ccc([S+]([O-])c2ccc(C(C3CCCCC3)N3CCN(C4CCCCC4)CC3)cc2)cc1 (stereo unspecified) | 17 nM | 3 | 52 nM
CC(c1ccc(S(=O)(=O)c2ccc(C(C)(C)C)cc2)cc1)N1CCN(C2CCCCC2)CC1 (stereo unspecified) | 33 nM | 2.6 | 85 nM
COc1ccc([S+]([O-])c2ccc(C(N3CCN(C4CCCCC4)CC3)C(F)(F)F)cc2)cc1 (stereo unspecified) | 5 nM | 5 | 23 nM
CC(c1ccc(S(=O)(=O)c2ccccc2)cc1)N1CCN(c2ccccc2)CC1 (stereo unspecified) | 4600 nM | 1 | 4770 nM
COc1ccc([S@@+]([O-])c2ccc(C(C#N)N3CCN(C4CCCCC4)CC3)cc2)cc1 (single isomer, unassigned; form 1) [listing 1 of 2 here] | 9 nM and 17 nM |  | 140 nM and 253 nM
COc1ccc([S@@+]([O-])c2ccc(C(C#N)N3CCN(C4CCCCC4)CC3)cc2)cc1 (single isomer, unassigned; form 2) [listing 1 of 2 here] |  | 22 and 9 | 
COc1ccc([S@@+]([O-])c2ccc(C(C#N)N3CCN(C4CCCCC4)CC3)cc2)cc1 (single isomer, unassigned; form 2) [listing 2 of 2 here] | 3.8 nM and 20 nM |  | 83 nM and 180 nM
CC(c1ccc(S(=O)(=O)c2ccc(S(C)(=O)=O)cc2)cc1)N1CCN(C2CCCCC2)CC1 (stereo unspecified) | 36 nM | 3 | 106 nM
COc1ccc(S(=O)(=O)c2ccc(C(C)N3CCN(C4CCCCC4)CC3)cc2)cc1 (stereo unspecified) | 0.6 nM | 10 | 6 nM
CC(c1ccc(S(=O)(=O)c2ccccc2)cc1)N1CCN(C)CC1 (stereo unspecified) | 34 nM | 3 | 96 nM
COc1ccc([S@@+]([O-])c2ccc(C(C#N)N3CCN(C4CCCCC4)CC3)cc2)cc1 (single isomer, unassigned; form 1) [listing 2 of 2 here] |  | 15 | 
COc1ccc([S+]([O-])c2ccc(C(C(N)=O)N3CCN(C4CCCCC4)CC3)cc2)cc1 (stereo unspecified) | 40 nM | 6 | 242 nM
CCOC(=O)N1CCN(C(C)c2ccc(S(=O)(=O)c3ccccc3)cc2)CC1 (stereo unspecified) | 135 nM | 1.5 | 200 nM
COc1ccc([S+]([O-])c2ccc(C(C)N3CCN(C4CCCCC4)CC3)cc2)cc1 (stereo unspecified) |  | 6 | 
COc1ccc([S+]([O-])c2ccc(C(C#N)N3CCN(C4CCCCC4)CC3)cc2)cc1 (stereo unspecified) | 8 nM | 14 | 117 nM
COc1ccc([S@@+]([O-])c2ccc(C(C#N)N3CCN(C4CCCCC4)CC3)cc2)cc1 (stereo in doubt; 1) [listing 1 of 2 here] |  | 40 | 
CC(c1ccc(S(=O)(=O)c2ccccc2)cc1)N1CCN(C2CCCCC2)CC1 (stereo unspecified) | 0.2 nM | 6 | 1.3 nM
COc1ccc([S@@+]([O-])c2ccc(C(C#N)N3CCN(C4CCCCC4)CC3)cc2)cc1 (stereo in doubt; 1) [listing 2 of 2 here] | 2.7 nM |  | 
